Holding throughout (assay type): in vivo
In assay [1] the test system is Avena fatua (AVEFA). Put plainly: Post-emergence herbicidal glasshouse test, Avena fatua. As to conditions: Avena fatua, 312 h, rate 250 g/ha, evaluated after 13 days, scale 100 = total damage to plant, 0 = no damage. Here is the method:
(§1) Seeds of a variety of test species were sown in standard soil in pots. After cultivation for one day (pre-emergence) or after 8 days cultivation (post-emergence) under controlled conditions in a glasshouse (at 24/16° C., day/night; 14 hours light; 65% humidity), the plants were sprayed with an aqueous spray solution derived from the formulation of the technical active ingredient in acetone/water (50:50) solution containing 0.5% Tween 20 (polyoxyethelyene sorbitan monolaurate, CAS RN 9005-64-5). The test plants were then grown in a glasshouse under controlled conditions in a glasshouse (at 24/16° C., day/night; 14 hours light; 65% humidity) and watered twice daily. After 13 days for pre and post-emergence, the test was evaluated ([…] to plant; 0=no damage to plant).
(§2) Setaria faberi (SETFA), Lolium perenne (LOLPE), Alopecurus myosuroides (ALOMY), Echinochloa crus-galli (ECHCG) and Avena fatua (AVEFA).

In assay [2] the test system is Echinochloa crus-galli (ECHCG). Kind of assay: Post-emergence herbicidal glasshouse test, Echinochloa crus-galli. As to conditions: Echinochloa crus-galli, 312 h, rate 250 g/ha, evaluated after 13 days, scale 100 = total damage to plant, 0 = no damage. How it is done: as §1, §2
The subject of assay [3] is Avena fatua (AVEFA). Kind of assay: Pre-emergence herbicidal glasshouse test, Avena fatua. As to conditions: Avena fatua, 312 h, rate 250 g/ha, evaluated after 13 days, scale 100 = total damage to plant, 0 = no damage. How it is done: as §1, §2
Assay [4] deals with Lolium perenne (LOLPE). Put plainly: Post-emergence herbicidal glasshouse test, Lolium perenne. As to conditions: 312 h, rate 250 g/ha, evaluated after 13 days, scale 100 = total damage to plant, 0 = no damage. Here is the method:
as §1, §2

Assay [5] concerns Alopecurus myosuroides (ALOMY). Put plainly: Post-emergence herbicidal glasshouse test, Alopecurus myosuroides. As to conditions: Alopecurus myosuroides, 312 h, rate 250 g/ha, evaluated after 13 days, scale 100 = total damage to plant, 0 = no damage. Here is the method:
as §1, §2

Assay [6] deals with Lolium perenne (LOLPE). Kind of assay: Pre-emergence herbicidal glasshouse test, Lolium perenne. As to conditions: 312 h, rate 250 g/ha, evaluated after 13 days, scale 100 = total damage to plant, 0 = no damage. Here is the method: as §1, §2
For assay [7], the system named is Echinochloa crus-galli (ECHCG). Put plainly: Pre-emergence herbicidal glasshouse test, Echinochloa crus-galli. As to conditions: Echinochloa crus-galli, 312 h, rate 250 g/ha, evaluated after 13 days, scale 100 = total damage to plant, 0 = no damage. Here is the method:
as §1, §2

Assay [8] deals with Alopecurus myosuroides (ALOMY). Kind of assay: Pre-emergence herbicidal glasshouse test, Alopecurus myosuroides. As to conditions: Alopecurus myosuroides, 312 h, rate 250 g/ha, evaluated after 13 days, scale 100 = total damage to plant, 0 = no damage. Here is the method: as §1, §2

For orientation: pest or weed control means how far the test organism was held down. Low values mean a weak effect, high ones a strong effect. Take `CCc1cc(-c2cc(F)c(F)cc2F)ccc1C1=C(O)C(C)(CC)OC(C)(C)C1=O` (stereo not shown) [Compound A-122]: the pest or weed control at 250 g/ha is 30% in the assay with Avena fatua (AVEFA) [1]; 70% in assay [2]; 0% with Avena fatua (AVEFA) [3]; 70% in the assay with Lolium perenne (LOLPE) [4]; 90% in assay [5]; 0% with Lolium perenne (LOLPE) [6]. Besides, the pest or weed control at 250 g/ha in assay [7] was 10%; in assay [8], 20%.

Consider `CCc1cc(-c2ccc(Cl)c(Cl)c2F)ccc1C1=C(O)C(C)(C)OC(C)(C)C1=O` [Compound A-48], for which the pest or weed control at 250 g/ha in the assay with Avena fatua (AVEFA) [1] amounted to 20%; in assay [2], 100%; with Avena fatua (AVEFA) [3] it was 0%; in the assay on Lolium perenne (LOLPE) [4], 30%; in assay [5], 50%; in the assay on Lolium perenne (LOLPE) [6] it was 0%. The pest or weed control at 250 g/ha in assay [7] and in assay [8] was 0% in each case.

For `CCc1cc(-c2ccc(F)c(F)c2)ccc1C1=C(O)C(C)(CC)OC(C)(CC)C1=O` (stereo not shown) [Compound A-129], the pest or weed control at 250 g/ha with Avena fatua (AVEFA) [1] is 70%; in assay [2], 90%; with Avena fatua (AVEFA) [3], 10%; in the assay on Lolium perenne (LOLPE) [4] it was 80%; in assay [5], 90%; with Lolium perenne (LOLPE) [6] it was 30%. Further, the pest or weed control at 250 g/ha in assay [7] was 90%; in assay [8], 30%.

Turning to `CCc1cc(-c2ccc(Cl)c(F)c2F)ccc1C1=C(O)C(C)(C)OC(C)(C)C1=O` [Compound A-47], the pest or weed control at 250 g/ha in the assay on Avena fatua (AVEFA) [1] came out at 70%; in assay [2], 100%; in the assay on Avena fatua (AVEFA) [3], 40%; in the assay with Lolium perenne (LOLPE) [4] it was 60%; in assay [5] it was 90%; with Lolium perenne (LOLPE) [6], 50%. Also, the pest or weed control at 250 g/ha in assay [7] amounted to 30%; in assay [8], 0%.

For the compound `Cc1cc(-c2ccc(F)cc2)cc(C)c1C1=C(O)[C@@]2(C)CC[C@H](O2)C1=O` [Compound A-55], the pest or weed control at 250 g/ha in the assay on Avena fatua (AVEFA) [1] is 90%; in assay [2] it was 100%; in the assay with Avena fatua (AVEFA) [3], 70%; in the assay on Lolium perenne (LOLPE) [4] it was 100%; in assay [5], 100%; in the assay on Lolium perenne (LOLPE) [6], 90%. In addition, the results for the pest or weed control at 250 g/ha in assay [7] and in assay [8] were 100% and 70%, respectively.

In the case of `CCc1cc(-c2cc(F)c(F)c(F)c2)ccc1C1=C(O)C(C)(CC)OC(C)(CC)C1=O` (stereo not shown) [Compound A-130], the pest or weed control at 250 g/ha with Avena fatua (AVEFA) [1] turned out to be 70%; in assay [2] it was 90%; in the assay with Avena fatua (AVEFA) [3], 10%; in the assay on Lolium perenne (LOLPE) [4], 60%; in assay [5] it was 90%; in the assay with Lolium perenne (LOLPE) [6] it was 60%. Also, the values for the pest or weed control at 250 g/ha in assay [7] and in assay [8] were 40% and 50%, respectively.

Regarding `CCc1cc(-c2ccc(Cl)cc2Cl)ccc1C1=C(O)[C@@]2(C)CC[C@H](O2)C1=O` [Compound A-13], the pest or weed control at 250 g/ha in the assay with Avena fatua (AVEFA) [1] amounted to 80%; in assay [2], 100%; in the assay with Avena fatua (AVEFA) [3], 0%; in the assay with Lolium perenne (LOLPE) [4] it was 100%; in assay [5] it was 70%; in the assay with Lolium perenne (LOLPE) [6] it was 20%. For the same compound, the pest or weed control at 250 g/ha in assay [7] was found to be 50%; in assay [8], 0%.

Consider `CCc1cc(-c2ccc(F)cc2OC)ccc1C1=C(O)C(C)(C)OC(C)(C)C1=O` [Compound A-85], for which the pest or weed control at 250 g/ha in the assay on Avena fatua (AVEFA) [1] worked out at 40%; in assay [2], 80%; in the assay on Avena fatua (AVEFA) [3], 30%; in the assay with Lolium perenne (LOLPE) [4], 70%; in assay [5], 60%; with Lolium perenne (LOLPE) [6], 70%. Moreover, the pest or weed control at 250 g/ha came out at 20% in assay [7] and 0% in assay [8].

With `CCc1cc(-c2ccc(F)c(F)c2F)ccc1C1=C(O)C(C)(COC)OC(C)(C)C1=O` (stereo not shown) [Compound A-117], the pest or weed control at 250 g/ha is 80% with Avena fatua (AVEFA) [1]; 100% in assay [2]; 40% with Avena fatua (AVEFA) [3]; 80% in the assay on Lolium perenne (LOLPE) [4]; 90% in assay [5]; 60% in the assay on Lolium perenne (LOLPE) [6]. For the same compound, the pest or weed control at 250 g/ha is 90% in assay [7] and 70% in assay [8].

For the compound `CCc1cc(-c2ccc(Cl)c(F)c2Cl)ccc1C1=C(O)C(C)(C)OC(C)(C)C1=O` [Compound A-46], the pest or weed control at 250 g/ha in the assay with Avena fatua (AVEFA) [1] came out at 0%; in assay [2], 80%; in the assay with Avena fatua (AVEFA) [3], 0%; with Lolium perenne (LOLPE) [4], 40%; in assay [5] it was 50%; with Lolium perenne (LOLPE) [6] it was 40%. Further, the pest or weed control at 250 g/ha is 30% in assay [7] and 0% in assay [8].

Turning to `CCc1cc(-c2ccc(F)cc2)ccc1C1=C(O)C(C)(CC)OC(C)(CC)C1=O` (stereo not shown) [Compound A-104], the pest or weed control at 250 g/ha in the assay on Avena fatua (AVEFA) [1] came out at 10%; in assay [2] it was 90%; in the assay with Avena fatua (AVEFA) [3] it was 0%; in the assay on Lolium perenne (LOLPE) [4], 60%; in assay [5], 90%; in the assay on Lolium perenne (LOLPE) [6] it was 60%. Also, the pest or weed control at 250 g/ha in assay [7] was 40%; in assay [8], 50%.

`CCc1cc(-c2ccccc2)ccc1C1=C(O)C(C)(C)OC(C)(C)C1=O` [Compound A-96]: the pest or weed control at 250 g/ha in the assay on Avena fatua (AVEFA) [1] was 10%; in assay [2] it was 90%; in the assay on Avena fatua (AVEFA) [3], 10%; in the assay with Lolium perenne (LOLPE) [4] it was 80%; in assay [5] it was 80%; in the assay with Lolium perenne (LOLPE) [6], 0%. Besides, the pest or weed control at 250 g/ha in assay [7] is 20%; in assay [8], 0%.

As for `CCc1cc(-c2ccc(F)c(OC)c2)ccc1C1=C(O)C(C)(CC)OC(C)(C)C1=O` (stereo not shown) [Compound A-118], the pest or weed control at 250 g/ha in the assay with Avena fatua (AVEFA) [1] turned out to be 80%; in assay [2], 90%; in the assay with Avena fatua (AVEFA) [3], 0%; in the assay with Lolium perenne (LOLPE) [4], 80%; in assay [5], 60%; in the assay with Lolium perenne (LOLPE) [6], 90%. The pest or weed control at 250 g/ha was 40% in assay [7] and 20% in assay [8].

Turning to `CCc1cc(-c2c(F)cc(F)cc2F)ccc1C1=C(O)C(C)(COC)OC(C)(C)C1=O` (stereo not shown) [Compound A-116], the pest or weed control at 250 g/ha in the assay with Avena fatua (AVEFA) [1] was 60%; in assay [2], 100%; with Avena fatua (AVEFA) [3], 60%; in the assay with Lolium perenne (LOLPE) [4] it was 70%; in assay [5] it was 90%; in the assay with Lolium perenne (LOLPE) [6] it was 70%. The values for the pest or weed control at 250 g/ha in assay [7] and in assay [8] were 100% and 90%, respectively.

Regarding `CCc1cc(-c2cc(Cl)ccc2OC)ccc1C1=C(O)C(C)(C)OC(C)(C)C1=O` [Compound A-74], the pest or weed control at 250 g/ha in the assay with Avena fatua (AVEFA) [1] was 40%; in assay [2], 100%; in the assay on Avena fatua (AVEFA) [3], 0%; in the assay on Lolium perenne (LOLPE) [4] it was 70%; in assay [5] it was 80%; in the assay on Lolium perenne (LOLPE) [6], 0%. Further, the pest or weed control at 250 g/ha in assay [7] and in assay [8] was 0% in each case.

Take `CCc1cc(-c2ccc(F)c(F)c2F)ccc1C1=C(O)C(C)(C)C(=O)C(C)(C)C1=O` [Compound C-8]: the pest or weed control at 250 g/ha amounted to 10% in the assay with Avena fatua (AVEFA) [1]; 60% in assay [2]; 0% in the assay with Avena fatua (AVEFA) [3]; 60% in the assay on Lolium perenne (LOLPE) [4]; 60% in assay [5]; 30% in the assay with Lolium perenne (LOLPE) [6]. The pest or weed control at 250 g/ha in assay [7] was 30%; in assay [8], 10%.

On to `CCc1cc(-c2ccc(F)c(F)c2)ccc1C1=C(O)C(C)(C)[S+]([O-])C(C)(C)C1=O` (stereo not shown) [Compound B-11], for which the pest or weed control at 250 g/ha in the assay on Avena fatua (AVEFA) [1] is 70%; in assay [2], 40%; with Avena fatua (AVEFA) [3] it was 20%; in the assay on Lolium perenne (LOLPE) [4], 60%; in assay [5] it was 60%; in the assay on Lolium perenne (LOLPE) [6], 40%. The figures for the pest or weed control at 250 g/ha in assay [7] and in assay [8] were 0% and 50%, respectively.

Source of the values: US8895761B2, “4-phenylpyrane-3,5-diones, 4-phenylthiopyrane-3,5-diones and 2-phenylcyclohexane-1,3,5-triones as herbicides” (Syngenta Limited, priority 2007, dated 2014).
